Source: patent US10251395B2, “Substituted furano-/thienocycloalkylamino-2-pyrimidine derivatives and use thereof for controlling undesired plant growth” (Bayer CropScience Aktiengesellschaft, priority 2015, dated 2019)

Columns and labels:
Type in all cases: in vivo
[1] = test system: Stellaria media; experiment: Post-emergence herbicidal effect; conditions: assessed visually after about 3 weeks vs untreated controls
Method in brief: (§1)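 Seedlings at the one-leaf stage, about 2 to 3 weeks old, are sprayed on their foliage with compound suspended or emulsified in water containing 0.2% wetting agent. After roughly 3 weeks in the greenhouse, injury is estimated visually on a 0 to 100% scale.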

[2] = test system: Lolium multiflorum; experiment: Post-emergence herbicidal effect; conditions: assessed visually after about 3 weeks vs untreated controls
Method in brief: as §1

[3] = test system: Echinochloa crus-galli; experiment: Post-emergence herbicidal effect; conditions: 320 g/ha, assessed visually after about 3 weeks vs untreated controls
Method in brief: as §1

[4] = test system: Setaria viridis; experiment: Post-emergence herbicidal effect; conditions: assessed visually after about 3 weeks vs untreated controls
Method in brief: as §1

[5] = test system: Viola tricolor; experiment: Post-emergence herbicidal effect; conditions: assessed visually after about 3 weeks vs untreated controls
Method in brief: as §1

[6] = test system: Polygonum convolvulus; experiment: Post-emergence herbicidal effect; conditions: assessed visually after about 3 weeks vs untreated controls
Method in brief: as §1

[7] = test system: Stellaria media; experiment: Pre-emergence herbicidal effect; conditions: scored visually after 3 weeks
Method in brief: (§2)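 Greenhouse pre-emergence test: compound sprayed onto covering soil over sown seeds, assessed by eye after 3 weeks. Scale runs from 0% (like control) to 100% (plants died).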

[8] = test system: Veronica persica; experiment: Pre-emergence herbicidal effect; conditions: scored visually after 3 weeks
Method in brief: as §2

[9] = test system: Lolium multiflorum; experiment: Pre-emergence herbicidal effect; conditions: scored visually after 3 weeks
Method in brief: as §2

[10] = test system: Alopecurus myosuroides; experiment: Pre-emergence herbicidal effect; conditions: scored visually after 3 weeks
Method in brief: as §2

[11] = test system: Echinochloa crus-galli; experiment: Pre-emergence herbicidal effect; conditions: scored visually after 3 weeks
Method in brief: as §2

[12] = test system: Setaria viridis; experiment: Pre-emergence herbicidal effect; conditions: scored visually after 3 weeks
Method in brief: as §2

[13] = test system: Avena fatua; experiment: Pre-emergence herbicidal effect; conditions: Dosage 320 g/ha, scored visually after 3 weeks
Method in brief: as §2

[14] = test system: Viola tricolor; experiment: Pre-emergence herbicidal effect; conditions: scored visually after 3 weeks
Method in brief: as §2

[15] = test system: Matricaria inodora; experiment: Pre-emergence herbicidal effect; conditions: scored visually after 3 weeks
Method in brief: as §2

[16] = test system: Amaranthus retroflexus; experiment: Pre-emergence herbicidal effect; conditions: scored visually after 3 weeks
Method in brief: as §2

[17] = test system: Veronica persica; experiment: Post-emergence herbicidal effect; conditions: assessed visually after about 3 weeks vs untreated controls
Method in brief: as §1

[18] = test system: Abutilon theophrasti; experiment: Post-emergence herbicidal effect; conditions: assessed visually after about 3 weeks vs untreated controls
Method in brief: as §1

[19] = test system: Matricaria inodora; experiment: Post-emergence herbicidal effect; conditions: assessed visually after about 3 weeks vs untreated controls
Method in brief: as §1

[20] = test system: Ipomoea purpurea; experiment: Post-emergence herbicidal effect; conditions: assessed visually after about 3 weeks vs untreated controls
Method in brief: as §1

[21] = test system: Amaranthus retroflexus; experiment: Post-emergence herbicidal effect; conditions: assessed visually after about 3 weeks vs untreated controls
Method in brief: as §1

[22] = test system: Polygonum convolvulus; experiment: Pre-emergence herbicidal effect; conditions: scored visually after 3 weeks
Method in brief: as §2

[23] = test system: Abutilon theophrasti; experiment: Pre-emergence herbicidal effect; conditions: Dosage 320 g/ha, scored visually after 3 weeks
Method in brief: as §2

Compound	post-emergence efficacy STEME ([1]; 80 g/ha) [%]	post-emergence efficacy STEME ([1]; 320 g/ha) [%]	post-emergence efficacy ECHCG [3] [%]	post-emergence efficacy VIOTR ([5]; 320 g/ha) [%]	STEME pre-emergence efficacy (herbicidal activity) ([7]; Dosage 80 g/ha) [%]	STEME pre-emergence efficacy (herbicidal activity) ([7]; Dosage 320 g/ha) [%]	VERPE pre-emergence efficacy (herbicidal activity) ([8]; Dosage 320 g/ha) [%]	ALOMY pre-emergence efficacy (herbicidal activity) ([10]; Dosage 320 g/ha) [%]	ECHCG pre-emergence efficacy (herbicidal activity) ([11]; Dosage 320 g/ha) [%]	SETVI pre-emergence efficacy (herbicidal activity) ([12]; Dosage 80 g/ha) [%]	SETVI pre-emergence efficacy (herbicidal activity) ([12]; Dosage 320 g/ha) [%]	AVEFA pre-emergence efficacy (herbicidal activity) [13] [%]	VIOTR pre-emergence efficacy (herbicidal activity) ([14]; Dosage 80 g/ha) [%]	VIOTR pre-emergence efficacy (herbicidal activity) ([14]; Dosage 320 g/ha) [%]	MATIN pre-emergence efficacy (herbicidal activity) ([15]; Dosage 80 g/ha) [%]	MATIN pre-emergence efficacy (herbicidal activity) ([15]; Dosage 320 g/ha) [%]	AMARE pre-emergence efficacy (herbicidal activity) ([16]; Dosage 80 g/ha) [%]	AMARE pre-emergence efficacy (herbicidal activity) ([16]; Dosage 320 g/ha) [%]	POLCO pre-emergence efficacy (herbicidal activity) ([22]; Dosage 80 g/ha) [%]	POLCO pre-emergence efficacy (herbicidal activity) ([22]; Dosage 320 g/ha) [%]	other results
Nc1nc(NC2CCc3ccsc32)ncc1C(F)(F)F (racemic) [compound 29]	90	100	100	90	100	100	90	100	100	90	100	100	100	100	100	100	60	100	–	–	post-emergence efficacy LOLMU ([2]; 320 g/ha): 80%; post-emergence efficacy SETVI ([4]; 80 g/ha): 90%; post-emergence efficacy SETVI ([4]; 320 g/ha): 100%; post-emergence efficacy VIOTR ([5]; 80 g/ha): 80%; post-emergence efficacy POLCO ([6]; 320 g/ha): 90%; LOLMU pre-emergence efficacy (herbicidal activity) ([9]; Dosage 320 g/ha): 100%
Cc1cc2c(s1)CCCC2Nc1ncc(SC(F)(F)F)c(C)n1 (racemic) [compound 80]	100	100	70	100	100	100	100	70	–	100	100	60	90	100	70	90	100	100	100	100	post-emergence efficacy VERPE ([17]; 80 g/ha): 90%; post-emergence efficacy VERPE ([17]; 320 g/ha): 100%; post-emergence efficacy LOLMU ([2]; 80 g/ha): 70%; post-emergence efficacy LOLMU ([2]; 320 g/ha): 90%; post-emergence efficacy ABUTH ([18]; 80 g/ha): 80%; post-emergence efficacy ABUTH ([18]; 320 g/ha): 90%; post-emergence efficacy VIOTR ([5]; 80 g/ha): 100%; post-emergence efficacy MATIN ([19]; 80 g/ha): 70%; post-emergence efficacy MATIN ([19]; 320 g/ha): 90%; post-emergence efficacy POLCO ([6]; 320 g/ha): 60%; post-emergence efficacy PHBPU ([20]; 80 g/ha): 90%; post-emergence efficacy PHBPU ([20]; 320 g/ha): 100%; post-emergence efficacy AMARE ([21]; 80 g/ha): 100%; post-emergence efficacy AMARE ([21]; 320 g/ha): 100%; VERPE pre-emergence efficacy (herbicidal activity) ([8]; Dosage 80 g/ha): 100%
C/C(=N\O)c1cnc(NC2CCCc3sc(Cl)cc32)nc1C (racemic) [compound 260]	80	100	100	90	100	100	100	90	100	50	100	90	100	100	100	100	100	100	80	100	post-emergence efficacy VERPE ([17]; 320 g/ha): 100%; post-emergence efficacy LOLMU ([2]; 320 g/ha): 70%; post-emergence efficacy ABUTH ([18]; 80 g/ha): 80%; post-emergence efficacy ABUTH ([18]; 320 g/ha): 90%; post-emergence efficacy SETVI ([4]; 320 g/ha): 100%; post-emergence efficacy VIOTR ([5]; 80 g/ha): 70%; post-emergence efficacy MATIN ([19]; 80 g/ha): 70%; post-emergence efficacy MATIN ([19]; 320 g/ha): 90%; post-emergence efficacy POLCO ([6]; 80 g/ha): 60%; post-emergence efficacy POLCO ([6]; 320 g/ha): 60%; post-emergence efficacy PHBPU ([20]; 80 g/ha): 70%; post-emergence efficacy PHBPU ([20]; 320 g/ha): 90%; post-emergence efficacy AMARE ([21]; 80 g/ha): 90%; post-emergence efficacy AMARE ([21]; 320 g/ha): 90%; VERPE pre-emergence efficacy (herbicidal activity) ([8]; Dosage 80 g/ha): 100%; LOLMU pre-emergence efficacy (herbicidal activity) ([9]; Dosage 80 g/ha): 50%; LOLMU pre-emergence efficacy (herbicidal activity) ([9]; Dosage 320 g/ha): 100%; ALOMY pre-emergence efficacy (herbicidal activity) ([10]; Dosage 80 g/ha): 70%
Cc1cc2c(s1)CCCC2Nc1nc(N)c([S+](C)[O-])c(C(C)F)n1 (racemic) [compound 309]	–	–	–	–	100	100	100	90	90	90	100	90	100	100	90	100	90	100	100	100	VERPE pre-emergence efficacy (herbicidal activity) ([8]; Dosage 80 g/ha): 100%; ECHCG pre-emergence efficacy (herbicidal activity) ([11]; Dosage 80 g/ha): 60%; ABUTH pre-emergence efficacy (herbicidal activity) [23]: 80%
Cc1cc2c(s1)CCCC2Nc1nc(N)c(Br)c(C(F)F)n1 (racemic) [compound 314]	–	50	60	60	100	100	100	90	90	100	100	60	100	100	90	–	90	–	100	100	post-emergence efficacy ABUTH ([18]; 320 g/ha): 70%; post-emergence efficacy SETVI ([4]; 320 g/ha): 60%; post-emergence efficacy PHBPU ([20]; 320 g/ha): 90%; ALOMY pre-emergence efficacy (herbicidal activity) ([10]; Dosage 80 g/ha): 60%; ECHCG pre-emergence efficacy (herbicidal activity) ([11]; Dosage 80 g/ha): 70%; ABUTH pre-emergence efficacy (herbicidal activity) [23]: 60%
